{
  "source": "paper PMC4000412",
  "about": "“Novel LHRH-receptor-targeted cytolytic peptide, EP-100: first-in-human phase I study in patients with advanced LHRH-receptor-expressing solid tumors” (Cancer Chemotherapy and Pharmacology, 2014)",
  "key": {"[1]": {"details": "ref Esperance data on file, cited from earlier work", "description": "A conservative first-in-human starting dose of 0.6 mg/m^2 was chosen, based on the repeat-dose toxicity studies in dogs (which appeared to be the most sensitive species). The initial dose schedule of one 30 min infusion weekly was pre ..."}, "[2]": {"assay": "Plasma pharmacokinetics of EP-100 after IV infusion (phase I)", "type": "in vivo, human", "details": "for time at which C max was reached: majority of patients", "description": "Blood samples (approximately 5 mL) were collected on Cycle 1 Day 1 at the following times: pre-dose, 10 and 20 min after start of EP-100 infusion, prior to completion of the infusion (−3 min) and 2, 15, 30, 60 (±2), 120 (±2) and 240 (±5) min after the infusion. Concentrations of EP-100 in EDTA-anticoagulated plasma were assayed by a validated HPLC-Mass Spectrometry method developed at Covance (Indianapolis, IN). EP-100 and the internal standard were extracted from human plasma by solid-phase extraction and analyzed using liquid chromatography with tandem mass spectrometric detection (MS/MS). The lower limit of quantitation for EP-100 in human plasma was 0.025 μg/mL, with linearity demonstrable to 5 μg/mL (upper limit of quantitation). Plasma PK analysis for EP-100 was performed using non-compartmental methods with Phoenix™ WinNonlin® version 6.1 or higher (Pharsight Corp., Mountain View, CA). Concentration–time profiles were constructed from the plasma sample data. Estimates of the area under the plasma concentration time curve (AUC) and slope of the terminal decay phase were used to calculate values of the following pharmacokinetic parameters: apparent terminal phase half-life (t 1/2), total body clearance (CL), apparent time of maximum concentration (T max) and apparent volume of distribution (V z). Means and standard deviations are presented where applicable. Phoenix™ WinNonlin® was used to identify the terminal linear phase of the concentration–time profile. The number of points chosen was determined based on the largest regression coefficient, R ^2, obtained. A minimum of three data points was used for determination of λ z, the elimination rate constant, determined by the slope of the terminal linear phase. The R ^2 had to be ≥0.8 to be included in the pharmacokinetic results. Summary statistics were prepared using Microsoft Excel 2007, and graphics were prepared with SigmaPlot™ version 11.2 (Systat Software Inc., Richmond, CA)."}, "[3]": {"assay": "Antidrug antibodies (anti-EP-100) ELISA in human serum", "type": "in vivo", "details": "any dose level", "description": "ADA were evaluated using an enzyme linked immunoassay validated for the detection of antibodies against EP-100 (anti-EP-100) (Icon plc, formerly Prevalere Life Sciences, LLC, Whitesboro, NY). Antibodies were produced in rabbits against the lytic peptide moiety of EP-100 (APC 338983). Antibodies against EP-100 in human serum were detected by coating 96-well microtiter plates with peptide 338983. At least two wells from each plate were coated with human IgG at 500 ng/mL as controls for the goat antihuman horseradish peroxidase detector. Rabbit anti-EP-100 polyclonal antibody was used as a positive control. The plates were washed, and a mixture of goat antirabbit HRP and goat antihuman HRP and tetramethylbenzidine peroxide substrate were added, and the color development determined in a spectrophotometer at 450 and 620 nm wavelength. The developed color was proportional to the amount of anti-EP-100 antibody in the sample. The anti-EP-100 antibodies in serum were quantified from a calibration curve prepared from the positive control and ranged from 500 to 32,000 ng/mL in 100 % human serum."}},
  "note": "Like-named read-outs stand apart in the source and are kept apart here. Peptide text beside a SMILES is read from it.",
  "data": [
    {"molecule": "CC(C)C[C@H](NC(=O)CNC(=O)[C@H](Cc1ccc(O)cc1)NC(=O)[C@H](CO)NC(=O)[C@H](Cc1c[nH]c2ccccc12)NC(=O)[C@H](Cc1c[nH]cn1)NC(=O)[C@@H]1CCC(=O)N1)C(=O)N[C@@H](CCCNC(=N)N)C(=O)N1CCC[C@H]1C(=O)NCC(=O)N[C@@H](CCCCN)C(=O)N[C@@H](Cc1ccccc1)C(=O)N[C@@H](C)C(=O)N[C@@H](CCCCN)C(=O)N[C@@H](Cc1ccccc1)C(=O)N[C@@H](C)C(=O)N[C@@H](CCCCN)C(=O)N[C@@H](CCCCN)C(=O)N[C@@H](Cc1ccccc1)C(=O)N[C@@H](C)C(=O)N[C@@H](CCCCN)C(=O)N[C@@H](Cc1ccccc1)C(=O)N[C@@H](C)C(=O)N[C@@H](CCCCN)C(=O)N[C@@H](CCCCN)C(=O)N[C@@H](Cc1ccccc1)C(=O)N[C@@H](C)C(=O)N[C@@H](CCCCN)C(=O)O", "note": "[EP-100] (HELM PEPTIDE1{[Glp].H.W.S.Y.G.L.R.P.G.K.F.A.K.F.A.K.K.F.A.K.F.A.K.K.F.A.K}$$$$V2.0; C-terminus assumed)", "values": [
      {"measurement": "highest non-severely toxic dose", "setting": "[1]; repeat-dose animal studies", "result": 2.0, "unit": "mg/kg/dose"},
      {"measurement": "pharmacologic effect on pituitary LH and FSH", "setting": "[1]; some animals, with reduction in uterine and epididymal weights", "result": "reduction in pituitary production"},
      {"measurement": "increase in C max with dose", "setting": "[2]; 0.6-40 mg/m^2, data highly variable", "result": "slightly greater than dose proportional"},
      {"measurement": "time at which C max was reached", "setting": "[2]; EP-100 given over 30 min IV", "result": "20 to 40", "unit": "min"},
      {"measurement": "time at which C max was reached", "setting": "[2]; EP-100 given over 60 min IV", "result": "40 to 60", "unit": "min"},
      {"measurement": "plasma concentrations versus concentrations active in vitro", "setting": "[2]; doses of 5.2 mg/m^2 and above", "result": "reached the predicted “therapeutic” concentrations"},
      {"measurement": "volume of distribution, V z", "setting": "[2]; doses of 7.8 to 17 mg/m2 IV", "result": "2,400 to 2,666 mL"},
      {"measurement": "clearance", "setting": "[2]; human, plasma, 0.6 mg/m2, dose 0.6 mg/m^2 IV", "result": 299, "unit": "mL/min"},
      {"measurement": "Vd", "setting": "[2]; human, plasma, 0.6 mg/m2, dose 0.6 mg/m^2 IV, read-out: volume of distribution, V z", "result": 4.35, "unit": "L"},
      {"measurement": "clearance", "setting": "[2]; human, plasma, 5.2 mg/m2, dose 5.2 mg/m^2 IV", "result": 143, "unit": "mL/min"},
      {"measurement": "Vd", "setting": "[2]; human, plasma, 5.2 mg/m2, dose 5.2 mg/m^2 IV, read-out: volume of distribution, V z", "result": 1.56, "unit": "L"},
      {"measurement": "clearance", "setting": "[2]; human, plasma, 7.8 mg/m2, dose 7.8 mg/m^2 IV", "result": 223, "unit": "mL/min"},
      {"measurement": "clearance", "setting": "[2]; human, plasma, 11.7 mg/m2, dose 11.7 mg/m^2 IV", "result": 222, "unit": "mL/min"},
      {"measurement": "clearance", "setting": "[2]; human, plasma, 17 mg/m2, dose 17 mg/m^2 IV", "result": 110, "unit": "mL/min"},
      {"measurement": "AUC(0-inf)", "setting": "[2]; human, plasma, 40 mg/m2, highest dose level tested (40 mg/m^2), IV infusion, mean ± SD, read-out: mean AUC0–∞ (converted)", "result": 5430, "unit": "ng·h/mL"},
      {"measurement": "Cmax", "setting": "[2]; human, plasma, 40 mg/m2, highest dose level tested (40 mg/m^2), IV infusion, mean ± SD, read-out: mean C max", "result": 4760, "unit": "ng/mL"},
      {"measurement": "half-life", "setting": "[2]; human, plasma, 40 mg/m2, patients, IV infusion, highest dose tested (40 mg/m^2), read-out: terminal half-life", "result": "~15", "unit": "min"},
      {"measurement": "Vd", "setting": "[2]; human, plasma, doses of 7.8 to 17 mg/m2 IV, read-out: volume of distribution, V z per body weight", "result": "~0.06", "unit": "L/kg"},
      {"measurement": "antibodies to EP-100 (ADA)", "setting": "[3]", "result": "not detected"}
    ]}
  ]
}
